According to patent US20090203709A1, “Pharmaceutical Dosage Form For Oral Administration Of Tyrosine Kinase Inhibitor” (ABBOTT LABORATORIES, priority 2008, published 2009):
Read-outs that look alike come from different tables or passages of the source. Marks after values point to notes of the source that are not given here.

Key:
[1] = Safety in study M04-710 (adverse events, DLTs); type: in vivo, human
Method: Study M04-710 and M05-756 are ongoing, open-label, multiple-dose escalation trials with ABT-869 administered daily for 21 consecutive days, with dose escalation scheduled in cohorts of 3 subjects. […] In both studies dosing was initiated at 10 mg QD, with subjects self-administering ABT-869 orally (admixed with approximately 60 mL of Ensure Plus or an approved alternative) at bedtime. Food was not allowed 2 h before or after dosing. As a portion of trial M04-710, the bioavailability of ABT-869 as a single dose in a 10 mg tablet formulation was determined relative to the solution formulation.
(§1) The following safety evaluations were performed during the studies: adverse event monitoring, vital signs, ECGs, physical examination and laboratory tests assessments.

[2] = Safety in study M05-756 (AML/MDS; adverse events, DLTs)
Method: (§2) Food was not allowed 2 h before or after dosing.
as §1

[3] = human, in vivo
Method: as §2, §1

[4] = PK comparison across studies M04-710 and M05-756 (race, cancer type); type: in vivo, human; conditions: for Dose Normalized AUC24 / Dose Normalized Cmax: steady state; for half-life: human, plasma, oral
Method: The objective of this analysis was to compare pharmacokinetic (PK) parameters and to monitor safety and early efficacy of ABT-869 when treating solid tumors versus hematologic malignances, Asian versus Caucasian populations and using solution versus tablet formulations.
In study M04-710, blood samples for pharmacokinetic analysis were collected on Days 1 and 15 at the following times: 0 (pre-dose), 0.5, 1, 2, 3, 4, 6, 8, and 24 h (Day 1 only).
In study M05-756, blood samples for pharmacokinetic analysis were collected on Days 1 and 8 at the following times: 0 (pre-dose), 0.5, 1, 2, 3, 4, 6, 8, and 24 h (Day 1 only). Urine was collected for the 24 hour period following dosing on Day 13 through bedtime on Day 14 (non-hematologic malignancy study) and following dosing after Day 6 and through bedtime on Day 7 (AML/MDS study). Plasma and urine concentrations of ABT-869 were determined under the supervision of the Drug Analysis Department at Abbott using LCMS/MS. PK parameters were determined by noncompartmental analysis using WinNonlin Professional Version 5.0.1.

[5] = tested on: non-hematologic malignancy; assay: Efficacy in study M04-710; type: in vivo, human
Method: Study M04-710 and M05-756 are ongoing, open-label, multiple-dose escalation trials with ABT-869 administered daily for 21 consecutive days, with dose escalation scheduled in cohorts of 3 subjects. […] In both studies dosing was initiated at 10 mg QD, with subjects self-administering ABT-869 orally (admixed with approximately 60 mL of Ensure Plus or an approved alternative) at bedtime. Food was not allowed 2 h before or after dosing.
ECOG score of 0-2 in study of non-hematologic malignancies or 0-3 in AML/MDS study.

[6] = all cycles, N = 27, highest grade per subject
[7] = all cycles, N = 27, includes Skin Reaction, Skin Lesion, and Rash
[8] = all cycles, N = 10, highest grade per subject
[9] = Asian population, N 37, adjusted mean (% CV)
[10] = Caucasian population, N 12, adjusted mean (% CV)
[11] = Hematologic malignancies, N 17, adjusted mean (% CV)
[12] = Solid tumors, N 32, adjusted mean (% CV)

Klebsiella Bacteraemia, Grade 1 [3]: 0 n
Klebsiella Bacteraemia, Grade 2 [3]: 0 n
Klebsiella Bacteraemia, Grade 3/4 [3]: 2 n
Klebsiella Bacteraemia, Overall [3]: 2 (20.0) n (%)
time to maximum plasma concentration ([4]; 42 patients across studies): approximately 3 h
Dose Normalized AUC24 [4, 9]: 0.264 (41%) μg · hr/mL/mg
Dose Normalized Cmax [4, 9]: 0.018 (37%) μg/mL/mg
Dose Normalized AUC24 [4, 10]: 0.229 (34%) μg · hr/mL/mg
Dose Normalized Cmax [4, 10]: 0.016 (27%) μg/mL/mg
Dose Normalized AUC24 [4, 11]: 0.230 (39%) μg · hr/mL/mg
Dose Normalized Cmax [4, 11]: 0.018 (33%) μg/mL/mg
Dose Normalized AUC24 [4, 12]: 0.273 (40%) μg · hr/mL/mg
Dose Normalized Cmax [4, 12]: 0.017 (39%) μg/mL/mg
half-life ([4]; 42 patients across studies, read-out: mean terminal elimination half-life): 13.9 to 23.1 h
half-life ([4]; Asian population, N 37, adjusted mean (% CV), read-out: T1/2 (converted)): 18.4 h
half-life ([4]; Caucasian population, N 12, adjusted mean (% CV), read-out: T1/2 (converted)): 14.5 h
half-life ([4]; Hematologic malignancies, N 17, adjusted mean (% CV), read-out: T1/2 (converted)): 15.7 h
half-life ([4]; Solid tumors, N 32, adjusted mean (% CV), read-out: T1/2 (converted)): 18.4 h
Structure (SMILES): Cc1ccc(F)c(NC(=O)Nc2ccc(-c3cccc4[nH]nc(N)c34)cc2)c1 [ABT-869, N-[4-(3-amino-1H-indazol-4-yl)phenyl]-N′-(2-fluoro-5-methylphenyl)urea]
DLT: Grade 3 hypertension ([1]; 0.10 mg/kg): 1 patient
DLT: Grade 3 hypertension ([1]; 0.25 mg/kg): 1 patient
DLT: Grade 3 proteinuria ([1]; 0.25 mg/kg): 1 patient
DLT: Grade 3 proteinuria and Grade 3 hypertension ([1]; 0.30 mg/kg): 2 patients
DLT: Grade 3 fatigue ([1]; 10 mg/body): 1 patient
Anorexia, Overall ([1]; all cycles, N = 27): 7 (25.9) n (%)
Arthralgia, Overall ([1]; all cycles, N = 27): 6 (22.2) n (%)
Constipation, Overall ([1]; all cycles, N = 27): 6 (22.2) n (%)
Diarrhoea, Overall ([1]; all cycles, N = 27): 7 (25.9) n (%)
Fatigue, Overall ([1]; all cycles, N = 27): 22 (81.5) n (%)
Hypertension, Overall ([1]; all cycles, N = 27): 12 (44.4) n (%)
Myalgia, Overall ([1]; all cycles, N = 27): 15 (55.6) n (%)
Nausea, Overall ([1]; all cycles, N = 27): 5 (18.5) n (%)
Oral Pain, Overall ([1]; all cycles, N = 27): 11 (40.7) n (%)
Proteinuria, Overall ([1]; all cycles, N = 27): 6 (22.2) n (%)
Vomiting, Overall ([1]; all cycles, N = 27): 5 (18.5) n (%)
Anorexia, Grade 1 [1, 6]: 6 n
Anorexia, Grade 2 [1, 6]: 1 n
Anorexia, Grade 3/4 [1, 6]: 0 n
Arthralgia, Grade 1 [1, 6]: 5 n
Arthralgia, Grade 2 [1, 6]: 1 n
Arthralgia, Grade 3/4 [1, 6]: 0 n
Constipation, Grade 1 [1, 6]: 0 n
Constipation, Grade 2 [1, 6]: 6 n
Constipation, Grade 3/4 [1, 6]: 0 n
Diarrhoea, Grade 1 [1, 6]: 6 n
Diarrhoea, Grade 2 [1, 6]: 1 n
Diarrhoea, Grade 3/4 [1, 6]: 0 n
Fatigue, Grade 1 [1, 6]: 14 n
Fatigue, Grade 2 [1, 6]: 4 n
Hypertension, Grade 1 [1, 6]: 0 n
Hypertension, Grade 2 [1, 6]: 8 n
Hypertension, Grade 3/4 [1, 6]: 4 n
Myalgia, Grade 1 [1, 6]: 9 n
Myalgia, Grade 2 [1, 6]: 6 n
Myalgia, Grade 3/4 [1, 6]: 0 n
Nausea, Grade 1 [1, 6]: 3 n
Nausea, Grade 2 [1, 6]: 2 n
Nausea, Grade 3/4 [1, 6]: 0 n
Oral Pain, Grade 1 [1, 6]: 9 n
Oral Pain, Grade 2 [1, 6]: 2 n
Oral Pain, Grade 3/4 [1, 6]: 0 n
Proteinuria, Grade 1 [1, 6]: 0 n
Proteinuria, Grade 2 [1, 6]: 2 n
Proteinuria, Grade 3/4 [1, 6]: 4 n
Vomiting, Grade 1 [1, 6]: 4 n
Vomiting, Grade 2 [1, 6]: 1 n
Vomiting, Grade 3/4 [1, 6]: 0 n
Skin Related Event, Grade 1 [1, 7]: 5 n
Skin Related Event, Grade 2 [1, 7]: 9 n
Skin Related Event, Grade 3/4 [1, 7]: 1 n
Skin Related Event, Overall [1, 7]: 15 (55.6) n (%)
Fatigue, Grade 3/4 ([1]; all cycles, N = 27, occurred in cycle 3 or later): 4** n
dose-limiting toxicities ([1]; study M04-710): hypertension, proteinuria and fatigue are dose-limiting
reversibility of toxicities ([1]; study M04-710): treatable, or reversible with ABT-869 interruption
Dose limiting fatigue ([2]; 20 mg/body cohort): 3 patients
Alopecia, Overall ([2]; all cycles, N = 10): 2 (20.0) n (%)
Anorexia, Overall ([2]; all cycles, N = 10): 2 (20.0) n (%)
Asthenia, Overall ([2]; all cycles, N = 10): 3 (30.0) n (%)
Constipation, Overall ([2]; all cycles, N = 10): 2 (20.0) n (%)
Cough, Overall ([2]; all cycles, N = 10): 3 (30.0) n (%)
Diarrhoea, Overall ([2]; all cycles, N = 10): 4 (40.0) n (%)
Fatigue, Overall ([2]; all cycles, N = 10): 2 (20.0) n (%)
Febrile Neutropenia, Overall ([2]; all cycles, N = 10): 3 (30.0) n (%)
Haematuria, Overall ([2]; all cycles, N = 10): 2 (20.0) n (%)
Hypocalcaemia, Overall ([2]; all cycles, N = 10): 2 (20.0) n (%)
Hypokalaemia, Overall ([2]; all cycles, N = 10): 2 (20.0) n (%)
Myalgia, Overall ([2]; all cycles, N = 10): 2 (20.0) n (%)
Nausea, Overall ([2]; all cycles, N = 10): 2 (20.0) n (%)
Palmar-plantar erythrodysaesthesia syndrome, Overall ([2]; all cycles, N = 10): 2 (20.0) n (%)
Pyrexia, Overall ([2]; all cycles, N = 10): 3 (30.0) n (%)
Alopecia, Grade 1 [2, 8]: 0 n
Alopecia, Grade 2 [2, 8]: 2 n
Alopecia, Grade 3/4 [2, 8]: 0 n
Anorexia, Grade 1 [2, 8]: 2 n
Anorexia, Grade 2 [2, 8]: 0 n
Anorexia, Grade 3/4 [2, 8]: 0 n
Asthenia, Grade 1 [2, 8]: 1 n
Asthenia, Grade 2 [2, 8]: 0 n
Asthenia, Grade 3/4 [2, 8]: 2 n
Constipation, Grade 1 [2, 8]: 2 n
Constipation, Grade 2 [2, 8]: 0 n
Constipation, Grade 3/4 [2, 8]: 0 n
Cough, Grade 1 [2, 8]: 3 n
Cough, Grade 2 [2, 8]: 0 n
Cough, Grade 3/4 [2, 8]: 0 n
Diarrhoea, Grade 1 [2, 8]: 2 n
Diarrhoea, Grade 2 [2, 8]: 1 n
Diarrhoea, Grade 3/4 [2, 8]: 1 n
Fatigue, Grade 1 [2, 8]: 1 n
Fatigue, Grade 2 [2, 8]: 1 n
Fatigue, Grade 3/4 [2, 8]: 0 n
Febrile Neutropenia, Grade 1 [2, 8]: 0 n
Febrile Neutropenia, Grade 2 [2, 8]: 0 n
Febrile Neutropenia, Grade 3/4 [2, 8]: 3 n
Haematuria, Grade 1 [2, 8]: 1 n
Haematuria, Grade 2 [2, 8]: 1 n
Haematuria, Grade 3/4 [2, 8]: 0 n
Hypocalcaemia, Grade 1 [2, 8]: 2 n
Hypocalcaemia, Grade 2 [2, 8]: 0 n
Hypocalcaemia, Grade 3/4 [2, 8]: 0 n
Hypokalaemia, Grade 1 [2, 8]: 2 n
Hypokalaemia, Grade 2 [2, 8]: 0 n
Hypokalaemia, Grade 3/4 [2, 8]: 0 n
Myalgia, Grade 1 [2, 8]: 1 n
Myalgia, Grade 2 [2, 8]: 0 n
Myalgia, Grade 3/4 [2, 8]: 1 n
Nausea, Grade 1 [2, 8]: 2 n
Nausea, Grade 2 [2, 8]: 0 n
Nausea, Grade 3/4 [2, 8]: 0 n
Palmar-plantar erythrodysaesthesia syndrome, Grade 1 [2, 8]: 2 n
Palmar-plantar erythrodysaesthesia syndrome, Grade 2 [2, 8]: 0 n
Palmar-plantar erythrodysaesthesia syndrome, Grade 3/4 [2, 8]: 0 n
Pyrexia, Grade 1 [2, 8]: 1 n
Pyrexia, Grade 2 [2, 8]: 1 n
Pyrexia, Grade 3/4 [2, 8]: 1 n
dose-limiting toxicities ([2]; study M05-756): fatigue is dose-limiting
reversibility of toxicities ([2]; study M05-756): treatable, or reversible with ABT-869 interruption
change in tumor size ([5]; NSCLC, CRC, neuroendocrine tumor, HCC, RCC soft tissue sarcoma and ovarian carcinoma): Reductions in tumor size observed
NSCLC patients with partial remission / partial response ([5]; study M04-710): 2 (9%) patients (%)
patients with SD for >1 year with no accumulation of toxicity ([5]; study M04-710): 4 patients
patients with SD for ≧6 months ([5]; study M04-710): 6 (22%) patients (%)
patients with stable disease (SD) for ≧3 months (4 treatment periods) ([5]; study M04-710): 15 (56%) patients (%)
